Reference: US20120058200A1, “PROCESS FOR THE PREPARATION OF LANTHANUM CARBONATE DIHYDRATE” (Natco Pharma Limited, priority 2009, published 2012)

What was measured:
[1] = Phosphate binding studies of various lanthanum carbonate hydrates; conditions: for % Phosphate removed: two-fold molar excess of lanthanum carbonate hydrate over phosphate; for Peak phosphate binding: in about 7 times (so in the source)
Protocol: To study the phosphate binding activity of lanthanum carbonate dihdyrate, other hydrates of lanthanum carbonate (monohydrate, tetrahydrate and hexahydrate) were prepared. • a) A stock solution of standard phosphate was prepared by dissolving 13.75 g of Na2HPO4 in 1 L deionised water after adjusting the pH to 3.0 with […]. • b) Above stock solution (5 ml) was diluted with 90 ml water adjusted the pH to 3.0 with conc. HCl and made up to 100 ml with water. • c) A two-fold molar excess of Lanthanum carbonate hydrate over phosphate was weighed accurately according to the molecular weight and added to solution b). • d) Sampling was carried out at different time intervals 1, 3, 5, 7, and 10 min. […] Peak phosphate binding exceeding 99% is achieved with the dihydrate in about 7 times whereas only 81% is achieved with the tetrahydrate.

[2] = room temperature

SMILES	% Phosphate removed ([1]; 1 min, pH 3.0)	% Phosphate removed ([1]; 3 min, pH 3.0)	% Phosphate removed ([1]; 5 min, pH 3.0)	% Phosphate removed ([1]; 7 min, pH 3.0)	% Phosphate removed ([1]; 10 min, pH 3.0)	Phosphate binding speed ([1]; at all points (1-10 min), pH 3.0)	Peak phosphate binding ([1]; pH 3.0)	Performance in phosphate binding studies ([1]; over standard lanthanum carbonate tetrahydrate)	Stability [2]
O.O.O=C([O-])[O-].O=C([O-])[O-].O=C([O-])[O-].[La+3].[La+3] [Dihydrate, lanthanum carbonate dihydrate]	94.00%	93.00%	93.00%	99.45%	99.17%	relatively very fast	exceeding 99%	improved performance	stable
O.O.O.O.O.O.O=C([O-])[O-].O=C([O-])[O-].O=C([O-])[O-].[La+3].[La+3] [Hexahydrate]	57.10%	60.10%	79.73%	76.12%	81.15%	–	–	–	–
O.O=C([O-])[O-].O=C([O-])[O-].O=C([O-])[O-].[La+3].[La+3] [Monohydrate]	82.73%	90.05%	87.10%	91.72%	98.30%	–	–	–	–
O.O.O.O.O=C([O-])[O-].O=C([O-])[O-].O=C([O-])[O-].[La+3].[La+3] [Tetrahydrate, lanthanum carbonate tetrahydrate]	64.05%	73.64%	87.20%	81.21%	82.80%	–	81%	–	–
